Source: US20190192456A1, “USE OF CELIPROLOL FOR TREATING VASCULAR EHLERS-DANLOS SYNDROME IN WOMEN DURING PREGNANCY AND PERIPARTUM PERIOD” (Assistance Publique-Hôpitaux de Paris (AP-HP), priority 2017, published 2019)

What was measured:
Type in all cases: in vivo, human
[1] = tested on: parturients with molecularly confirmed vascular Ehlers-Danlos syndrome; assay: Maternal morbidity study (obstetrical interview study) of vascular EDS parturients; prescription of celiprolol during pregnancy, delivery and post-partum period
Protocol: For each pregnancy, date and time of delivery were recorded, as well as term of pregnancy at birth, expressed in weeks of amenorrhea (WA). In case of preterm labour or premature rupture of membranes (PROM), gestational age of occurrence was noted. Ongoing treatments during pregnancy were recorded, especially betablockers (celiprolol). In case of anaesthesia, type of ([…], general) and complications were collected (haematoma, leakage of spinal fluid, pneumothorax for general anaesthesia). Delivery was described as follows: type (vaginal, c-section), duration of labour for vaginal delivery and the use of forceps or episiotomy. Vascular complications were defined by the occurrence of arterial dissections and ruptures during pregnancy, delivery and during the post-partum period defined as 42 days after delivery. Haemorrhagic complications were defined by, either significant bleeding when reported as such by patients and/or medical records, either by bleeding requiring blood transfusion or post-partum haemorrhage. Bleeding events >1000 ml with hemodynamic collapse are reported as haemorrhagic shock. Perineal damage was defined by the occurrence of a perineal tear related or not with episiotomy. Perineal injury was graded according to Sultan et al., from grade I (limited defect of perineal skin), to grade IV (injury of the perineum involving the anal sphincter complex and epithelium) perineal tears.
After the first interview, all relevant obstetrical data, especially term of pregnancies and obstetrical complications (preterm labour, PROM, uterine rupture, haemorrhage) were independently checked for accuracy of diagnosis and staging by a senior obstetrician during a second interview, and hospital records of deliveries were checked, when available.
Programmed Early C-Section and Prescription of Celiprolol
In n=12 (20%) pregnancies of this cohort, diagnosis of maternal vascular EDS (n=11, 28%) was suspected (n=2) or genetically confirmed (n=9) at the time of delivery, with consequent obstetrical management (prescription of celiprolol 200 mg BID in n=7 patients covering 7/12 pregnancies; preterm c-section in n=11/12 deliveries, of which 9 were scheduled).

[2] = tested on: newborn of mothers who received celiprolol during pregnancy and delivery; assay: Newborn well-being after indirect exposure to celiprolol during pregnancy; details: n=7 newborn of mothers who received celiprolol during pregnancy and delivery
Protocol: For each newborn, weight and height at birth were recorded and presented as a function of term of pregnancy, as previously described. Health status at birth was assessed by the APGAR score noted in the children's health record, and any significant event that occurred at birth was collected (respiratory failure, pneumothorax, significant verifiable birth defects).
Reference charts for birth weight and size were constructed according to Battaglia et al. with normal values based on approximately 57 000 newborn of the Paris (France) area as reported by Salomon et al.[15].

[3] = tested on: parturients with vascular Ehlers-Danlos syndrome; assay: Maternal mortality analysis of vascular EDS families; details: one patient, 7 months after delivery; programmed early c-section, unremarkable arterial monitoring after the postpartum period
Excerpt: For the mortality analysis, the medical charts and pedigrees of all patients known to the French referral center for rare vascular diseases (AP-HP, Centre de Référence des Maladies Vasculaires Rares, Hôpital Européen Georges Pompidou, Paris, France) for having a molecularly confirmed vascular EDS, were screened for past or ongoing pregnancies, and for maternal deaths in probands and pedigrees. All families known to our center with at least one proband diagnosed with vascular EDS (nationwide patient cohort) were considered for participation to the maternal mortality analysis after exclusion of ascendants of patients with neomutations (see below). Patients with a personal history of pregnancy were considered for participation to the obstetrical interview study. […]
Maternal deaths were determined according to definitions of the 10th revision of the International Classification of Diseases of the World Health Organization (Geneva 2004). Pregnancy-related deaths defined as the death of a woman while pregnant or within 42 days of termination of pregnancy, irrespective of the cause of death, were determined for probands, first and second degree ascendants. […] A global maternal mortality ratio was then determined, which encompassed pregnancy-related and late maternal mortality ratios. […]

[4] = patients treated with celiprolol 200 mg BID, n=7

CCN(CC)C(=O)Nc1ccc(OCC(O)CNC(C)(C)C)c(C(C)=O)c1 (centres unmarked) [celiprolol, N′-(3-Acetyl-4-(3-((1,1-dimethylethyl)amino)-2-hydroxypropoxy)phenyl)-N,N-diethylurea]
tolerability of celiprolol throughout pregnancy and the post-partum period ([1]; celiprolol 200 mg BID in n=7 patients covering 7/12 pregnancies): well tolerated
dose adjustment in comparison to the dosage prescribed prior to the beginning of each pregnancy ([1]; celiprolol 200 mg BID, n=7 patients, throughout pregnancy and the post-partum period): no dose adjustment was necessary in any patient
arterial event (dissection, rupture) [1, 4]: No arterial event (dissection, rupture)
maternal survival of pregnancies and post-partum periods [1, 4]: all patients treated with celiprolol survived
uterine rupture [1, 4]: nor uterine rupture occurred in any patient
neonatal hypoglycaemia [2]: none of the n=7 newborn
other indications of adverse effects of indirect exposure to celiprolol during pregnancy [2]: nor had other indications of adverse effects
late maternal death by spontaneous intra-abdominal arterial rupture [3]: occurred spontaneously despite a programmed early c-section, medication by celiprolol
